# Measurements taken from US20250221966A1, “RXFP1 AGONISTS” (BRISTOL-MYERS SQUIBB COMPANY, priority 2021, published 2025).
# Biological target: T1, human RXFP1 (Homo sapiens, UniProt Q9HBX9)
# T1 construct: expressed in transfected cells
# T1 sequence (Q9HBX9 1-757): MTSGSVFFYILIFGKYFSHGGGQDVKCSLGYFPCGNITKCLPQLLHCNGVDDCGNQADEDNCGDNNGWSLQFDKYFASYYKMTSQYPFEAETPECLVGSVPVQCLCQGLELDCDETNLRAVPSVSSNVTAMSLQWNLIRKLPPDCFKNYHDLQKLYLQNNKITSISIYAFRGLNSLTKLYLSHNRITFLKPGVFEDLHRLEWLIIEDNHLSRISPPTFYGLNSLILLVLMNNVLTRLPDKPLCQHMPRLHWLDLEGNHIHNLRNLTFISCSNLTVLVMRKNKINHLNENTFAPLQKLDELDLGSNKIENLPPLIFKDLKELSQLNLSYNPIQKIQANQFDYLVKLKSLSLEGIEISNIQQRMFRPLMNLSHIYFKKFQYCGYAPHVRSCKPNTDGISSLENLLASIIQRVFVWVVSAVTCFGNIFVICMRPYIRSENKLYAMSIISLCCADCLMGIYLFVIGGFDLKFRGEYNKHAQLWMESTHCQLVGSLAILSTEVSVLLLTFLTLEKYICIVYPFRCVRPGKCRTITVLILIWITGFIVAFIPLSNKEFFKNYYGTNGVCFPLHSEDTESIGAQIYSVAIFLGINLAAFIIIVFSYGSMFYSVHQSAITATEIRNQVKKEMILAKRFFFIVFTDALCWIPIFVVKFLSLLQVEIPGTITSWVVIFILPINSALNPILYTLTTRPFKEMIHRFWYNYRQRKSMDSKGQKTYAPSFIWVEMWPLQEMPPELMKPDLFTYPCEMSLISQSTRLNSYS
# Test: RXFP1 cAMP assay (hRXFP1 HEK293 cAMP assay, HTRF)
# Format: cell-based
# Conditions: HEK293 cells stably expressing human RXFP1, 30 min at room temperature, read-out: cAMP hRXFP1 HEK293 Assay EC50
# How it was run: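 hRXFP1-HEK293 stable line; HBSS + Ca/Mg, 20 mM HEPES, 0.05% BSA, 0.5 mM IBMX; cpd 0.010 nM–50 μM, 2% DMSO; 30 min RT; lysis, HTRF cAMP detection; 4-PL fit.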
row,SMILES,EC50
1,"COc1ccc(-c2cc(C(OC(=O)Nc3ccccc3)C(F)F)ccc2F)cc1C(=O)N[C@H]1[C@@H](C(=O)Nc2ccc(F)c(C(F)(F)F)c2)[C@H]2CC[C@@H]1/C2=C\C1CC1 (stereo partly drawn) [Example 233, 1-(3′-(((1R,2R,3S,4R,Z)-7-(cyclopropylmethylene)-3-((4-fluoro-3-(trifluoromethyl)phenyl)carbamoyl)bicyclo[2.2.1]heptan-2-yl)carbamoyl)-6-fluoro-4′-methoxy-[1,1′-biphenyl]-3-yl)-2,2-difluoroethyl phenylcarbamate]",2 nM
2,COc1cc(F)c(F)cc1C(=O)N[C@@H]1C2CCC(/C2=C/c2ccccc2)[C@]1(F)C(=O)Nc1ccc(F)c(C(F)(F)F)c1 (stereo partly shown) [Example 53],240 nM
3,COc1ccc(-c2cc([C@H](OC(=O)NC3CCC3)C(F)(F)F)ccc2F)cc1C(=O)N[C@H]1[C@@H](C(=O)N[C@H](C)C2(C)CC2)[C@H]2CC[C@@H]1/C2=C\C1CC(F)(F)C1 [compound 967],2.1 nM
4,COc1ccc(-c2cccnc2)cc1C(=O)N[C@@H]1C2CCC(/C2=C/C2CC2)[C@@H]1C(=O)Nc1ccc(F)c(C(F)(F)F)c1 (stereo partly shown) [compound 278],32 nM
5,COc1ccc(-c2cc(C(=O)O)ccc2F)cc1C(=O)N[C@@H]1C2CCC(/C2=C/c2ccccc2)[C@@H]1C(=O)Nc1cccc(S(=O)(=O)C(F)(F)F)c1 (stereo partly shown) [compound 122],13 nM
6,COc1ccc(C2=NOC(C)(C(=O)O)C2)cc1C(=O)N[C@@H]1C2CCC(/C2=C/C2CC2)[C@@H]1C(=O)Nc1ccc(F)c(C(F)(F)F)c1 (stereo partly shown) [compound 422],55 nM
7,COc1c(F)cc(C2=NOC3CC(CO)CC23)cc1C(=O)N[C@H]1[C@@H](C(=O)NC23CC(C)(C2)C3)[C@H]2CC[C@@H]1/C2=C\C1CC1 (stereo partly shown) [compound 773],3.9 nM
8,"COc1ccc(C2=NO[C@@H]3CC[C@H](O)[C@H]23)cc1C(=O)N[C@H]1[C@@H](C(=O)Nc2ccc(F)c(C(F)(F)F)c2)[C@H]2CC[C@@H]1/C2=C\C1CC1 (single isomer, unassigned) [compound 484]",7.4 nM
9,COc1ccc(-c2cc(C(=O)O)ccc2F)cc1C(=O)NC1C2CCC(/C2=C/c2cn(C[Si](C)(C)C)nn2)[C@@H]1C(=O)Nc1ccc(F)c(C(F)(F)F)c1 (stereo partly shown) [Example 325],4830 nM
10,COc1cc(F)c(F)cc1C(=O)N[C@@H]1C2CCC(/C2=C/C=C/CCO)[C@@H]1C(=O)Nc1ccc(F)c(C(F)(F)F)c1 (stereo partly shown) [compound 67],1700 nM
11,COc1ccc(-c2cc([C@H](O)C(F)(F)F)ccc2F)cc1C(=O)NC1C2CCC(/C2=C/C2CC(F)(F)C2)C1C(=O)Nc1ccc(F)c(C(F)(F)F)c1 (stereo partly shown) [compound 358],18 nM
12,COc1ccc(C2=NOC3COCC23)cc1C(=O)N[C@H]1[C@@H](C(=O)NCc2ccc(Cl)cc2Cl)[C@H]2CC[C@@H]1/C2=C\C1CC1 (stereo partly shown) [compound 646],240 nM
13,COc1ccc(-c2cc(C(OC(=O)Nc3ccccc3F)C(F)(F)F)ccc2F)cc1C(=O)N[C@@H]1C2CCC(/C2=C/C2CC2)[C@@H]1C(=O)Nc1ccc(F)c(C(F)(F)F)c1 (stereo partly shown) [compound 223],2 nM
14,COc1ccc(-c2cc(C(COC(=O)NC3CCC3)C(F)(F)F)ccc2F)cc1C(=O)N[C@H]1[C@@H](C(=O)Nc2ccc(F)c(C(F)(F)F)c2)[C@H]2CC[C@@H]1/C2=C\C1CCCC1 (stereo partly shown) [compound 894],1.3 nM
15,COc1ccc(C2=NO[C@H]3CC(CO)C[C@@H]23)cc1C(=O)N[C@H]1[C@@H](C(=O)Nc2ccc(F)c(C(F)(F)F)c2)[C@H]2CC[C@@H]1/C2=C\CC(C)C (stereo partly shown) [compound 822],2.5 nM
16,COc1ccc(C2=NOC3CC(CO)CC23)cc1C(=O)N[C@H]1[C@@H](C(=O)Nc2ccc(F)c(C(F)(F)F)c2)[C@H]2CC[C@@H]1C2CC1CCC1 (stereo partly shown) [compound 523],21.3 nM
17,COc1ccc(-c2cc(C(OC(=O)NC(C)(C)C)C(=O)O)ccc2F)cc1C(=O)N[C@H]1[C@@H](C(=O)Nc2ccc(F)c(C(F)(F)F)c2)[C@H]2CC[C@@H]1/C2=C\CCC(F)(F)F (stereo partly shown) [compound 934],1.4 nM
18,CC12CC(NC(=O)[C@@H]3[C@H](NC(=O)c4cc(C5=NOC6CC(CO)CC56)cc(F)c4OCC4CC4)[C@@H]4CC[C@H]3/C4=C/C3CC3)(C1)C2 (stereo partly shown) [compound 764],2.3 nM
19,"COc1ccc(C2CC(O)C(=O)N2C)cc1C(=O)N[C@@H]1C2CCC(/C2=C/C2CC2)[C@@H]1C(=O)Nc1ccc(F)c(C(F)(F)F)c1 (single isomer, unassigned) [Example 414]",364 nM
20,COc1ccc(C2=NOC3CC(C)(CO)CC23)cc1C(=O)N[C@H]1[C@@H](C(=O)Nc2ccc(F)c(C(F)(F)F)c2)[C@H]2CC[C@@H]1/C2=C\C1CC1 (stereo partly shown) [compound 736],2.4 nM

row,SMILES,EC50
1,COc1ccc(-c2cc([C@H](OC(=O)NC3CC3)C(F)(F)F)ccc2F)cc1C(=O)N[C@H]1[C@@H](C(=O)Nc2ccc(F)c(C(F)(F)F)c2)[C@H]2CC[C@@H]1/C2=C\CC(C)C [compound 929],1.6 nM
2,COc1cc(F)c(F)cc1C(=O)N[C@@H]1C2CCC(/C2=C/C(C)(C)O)[C@@H]1C(=O)Nc1ccc(F)c(C(F)(F)F)c1 (stereo partly shown) [Example 65],2000 nM
3,"CN(C)c1c(Cl)cc(C2=NOC3COCC23)cc1C(=O)N[C@H]1[C@@H](C(=O)Nc2ccc(F)c(C(F)(F)F)c2)[C@H]2CC[C@@H]1/C2=C\C(F)(F)F (single isomer, unassigned) [compound 556]",41.7 nM
4,COc1ccc(-c2ccc(C(=O)O)cc2F)cc1C(=O)N[C@H]1[C@@H](C(=O)Nc2ccc(F)c(C(F)(F)F)c2)[C@H]2CC[C@@H]1/C2=C\C1CC(F)(F)C1 [compound 919],3.6 nM
5,COc1ccc(C2=NOC3COCC23)cc1C(=O)N[C@H]1[C@@H](C(=O)NCC2CC2)[C@H]2CC[C@@H]1/C2=C\C1CC1 (stereo partly shown) [compound 684],642 nM
6,COc1ccc(-c2cc(C(OC(=O)NCC(F)(F)F)C(F)(F)F)ccc2F)cc1C(=O)N[C@@H]1C2CCC(/C2=C/C2CC2)[C@@H]1C(=O)Nc1ccc(F)c(C(F)(F)F)c1 (stereo partly shown) [compound 220],8 nM
7,COc1ccc(-c2cc(C3=NOC(C(=O)O)C3)ccc2F)cc1C(=O)N[C@H]1[C@@H](C(=O)Nc2ccc(F)c(C(F)(F)F)c2)[C@H]2CC[C@@H]1/C2=C\C1CC1 (stereo partly shown) [compound 947],8.6 nM
8,COc1ccc(-c2cc(C(=O)N3CCC(O)CC3)on2)cc1C(=O)N[C@H]1[C@@H](C(=O)Nc2ccc(F)c(C(F)(F)F)c2)[C@H]2CC[C@@H]1/C2=C\C1CC1 [Example 594],91.4 nM
9,COc1ccc(C2=NOC3CC(CO)CC23)cc1C(=O)N[C@H]1[C@@H](C(=O)Nc2ccc(F)c(C(F)(F)F)c2)[C@H]2CC[C@@H]1/C2=C\C1CCC1 (stereo partly shown) [compound 446],0.6 nM
10,COc1ccc(C2CCCN2C(=O)C(C)(C)O)cc1C(=O)N[C@@H]1C2CCC(C2=CC2CC2)[C@@H]1C(=O)Nc1ccc(F)c(C(F)(F)F)c1 (stereo partly shown) [compound 671],451 nM
11,COc1ccc(C2=NOC(C(=O)O)C2)cc1C(=O)N[C@@H]1C2CCC(/C2=C/C2CCC2)[C@@H]1C(=O)Nc1ccc(F)c(C(F)(F)F)c1 (stereo partly shown) [compound 387],11 nM
12,COc1ccc(C2=NOC3COCC23)cc1C(=O)N[C@H]1[C@@H](C(=O)N[C@H](C)C2(C)CCC2)[C@H]2CC[C@@H]1/C2=C\C1CC1 (stereo partly shown) [compound 769],3.3 nM
13,COc1ccc(C2=NO[C@H]3C[C@H](CO)CN23)cc1C(=O)N[C@H]1[C@@H](C(=O)Nc2ccc(F)c(C(F)(F)F)c2)[C@H]2CC[C@@H]1/C2=C\C(C)C [compound 833],3.7 nM
14,CN(C)c1ccc(C2=NOC3COCC23)cc1C(=O)N[C@H]1[C@@H](C(=O)Nc2ccc(F)c(C(F)(F)F)c2)[C@H]2CC[C@@H]1/C2=C\C1CC1 (stereo partly shown) [compound 460],2.5 nM
15,"COc1ccc(C2=NOC3C(O)CC(O)C23)cc1C(=O)N[C@H]1[C@@H](C(=O)Nc2ccc(F)c(C(F)(F)F)c2)[C@H]2CC[C@@H]1/C2=C\C1CC1 (single isomer, unassigned) [compound 674]",481 nM
16,COc1ccc(-c2cc(C(COC(=O)Nc3ccccc3)C(F)(F)F)ccc2F)cc1C(=O)N[C@H]1[C@@H](C(=O)Nc2ccc(F)c(C(F)(F)F)c2)[C@H]2CC[C@@H]1/C2=C\C1CC1 (stereo partly shown) [compound 876],0.9 nM
17,"COc1ccc(C2CCCN2C(=O)OC(C)(C)C)cc1C(=O)N[C@@H]1C2CCC(/C2=C/C2CC2)[C@@H]1C(=O)Nc1ccc(F)c(C(F)(F)F)c1 (single isomer, unassigned) [compound 715]",1960 nM
18,COc1ccc(-c2cc(C(C)(C)O)on2)cc1C(=O)N[C@@H]1C2CCC(/C2=C/C2CC2)[C@@H]1C(=O)Nc1ccc(F)c(C(F)(F)F)c1 (stereo partly shown) [compound 425],19 nM
19,"COc1ccc(C2CC3CNS(=O)(=O)C32)cc1C(=O)N[C@H]1[C@@H](C(=O)Nc2ccc(F)c(C(F)(F)F)c2)[C@H]2CC[C@@H]1/C2=C\C1CC1 (single isomer, unassigned) [compound 732]",99 nM
20,COc1ccc(C2=NC[C@H]3CCCN23)cc1C(=O)N[C@H]1[C@@H](C(=O)Nc2ccc(F)c(C(F)(F)F)c2)[C@H]2CC[C@@H]1/C2=C\C1CC1 [Example 699],1030 nM
